In paper PMC2603005, “Structural insights into phenylethanolamines high-affinity binding site in NR2B from binding and molecular modeling studies” (Molecular Brain, 2008):
Read-outs that look alike come from different tables or passages of the source.

What was measured:
[1] = target: T1, 6 × His-ATD2B (amino-terminal domain of NR2B subunit), wild type (Rattus norvegicus, UniProt Q00960); assay: CD ligand displacement: RO25,6981 displacing saturating ifenprodil on 6 × His-ATD2B; type: binding; parameters: representation of the ATD2B construct (Arg27 to Arg393) with 6xHis-tag and linker; made in house
Procedure: DLS measurements were made with DynaPro (Protein Solutions) and CD spectra were measured at 25°C on a Jasco J-715 Spectropolarimeter equipped with a 0.1 cm path-length cuvette (Jasco Corporation, Tokyo, Japan) as described previously. For the CD assays, the refolded protein was concentrated to 1 mg/ml using Vivaspin 2 ml concentrator (Vivascience). […] The CD spectra of the wild-type and mutant 6 × His-ATD2B proteins in the absence and presence of a ligand were recorded from 190 to 250 nm. The CD spectrum of Buffer 2 was subtracted from all the CD spectra obtained. […] All experiments were performed using at least two separate batches of induced and refolded 6 × His-ATD2B proteins (both wild-type and mutants), each batch in duplicates or triplicates. The dose-dependent binding curves of ligands to 6 × His-ATD2B were fitted by the following equation: […]

NR1-1a/NR2B receptors = NR1-1a/NR2B receptors (Rattus norvegicus, UniProt P35439+Q00960); assay: cell-based
Procedure: cRNA for rat NR1-1a (hereafter NR1) and NR2B were synthesized in vitro and injected (5–10 ng) into stage V-VI Xenopus laevis oocytes, isolated as previously described [22, 26, 58]. Two-electrode voltage-clamp current recordings were made 2–7 days post injection. The recording solution contained (in mM) 90 NaCl, 3 KCl, 10 HEPES, 0.5 BaCl2, 0.01 EDTA, 0.05 glycine (23°C); pH was adjusted to 7.3 with NaOH. EDTA (10 μM) was added to chelate contaminant extracellular divalent ions, including trace amounts of Zn^2+. Solution exchange was computer controlled through an 8-modular valve positioner (Digital MVP Valve, Hamilton Company, Reno, NV). Voltage and current electrodes were filled with 0.3 and 3.0 M KCl, respectively, and current responses recorded at a holding potential of -40 mV. […] Data were pooled among oocytes and mean composite concentration-effect curve was fitted by the following equation:

[2] = target: T1, 6 × His-ATD2B (amino-terminal domain of NR2B subunit), wild type; assay: biochemical
Procedure: DLS measurements were made with DynaPro (Protein Solutions) and CD spectra were measured at 25°C on a Jasco J-715 Spectropolarimeter equipped with a 0.1 cm path-length cuvette (Jasco Corporation, Tokyo, Japan) as described previously [41]. For the CD assays, the refolded protein was concentrated to 1 mg/ml using Vivaspin 2 ml concentrator (Vivascience). […] The final change of assay volume was < 3% for all ligands investigated. The CD spectra of the wild-type and mutant 6 × His-ATD2B proteins in the absence and presence of a ligand were recorded from 190 to 250 nm. The CD spectrum of Buffer 2 was subtracted from all the CD spectra obtained. […] All experiments were performed using at least two separate batches of induced and refolded 6 × His-ATD2B proteins (both wild-type and mutants), each batch in duplicates or triplicates. The dose-dependent binding curves of ligands to 6 × His-ATD2B were fitted by the following equation:
Y = Bmax [ligand]/(KD + [ligand])
where Y is the shift in ellipticity, [ligand] is the concentration of ligand investigated and KD is the dissociation equilibrium constant.
The experiment data were analyzed by nonlinear curve fitting (ORIGIN7, USA). All pooled data were expressed as mean ± SEM.

NR1/NR2B = target: NR1/NR2B; parameters: method as in PMID 15769547, PMID 15056006; conditions: NR1/NR2B transfected HEK293 and mouse L(tk-) cell line; cited from earlier work
rat brain cortex = conditions: [3H]ifenprodil binding; cited from earlier work
NR1/NR2B(D101A) = system: NR1/NR2B(D101A); parameters: method as in PMID 14534359; conditions: D101A mutation, HEK293 membranes; cited from earlier work
NR1/NR2B(F176A) = system: NR1/NR2B(F176A); parameters: method as in PMID 14534359; conditions: F176A mutation, HEK293 membranes; cited from earlier work

T1 sequence (Q00960 27-393): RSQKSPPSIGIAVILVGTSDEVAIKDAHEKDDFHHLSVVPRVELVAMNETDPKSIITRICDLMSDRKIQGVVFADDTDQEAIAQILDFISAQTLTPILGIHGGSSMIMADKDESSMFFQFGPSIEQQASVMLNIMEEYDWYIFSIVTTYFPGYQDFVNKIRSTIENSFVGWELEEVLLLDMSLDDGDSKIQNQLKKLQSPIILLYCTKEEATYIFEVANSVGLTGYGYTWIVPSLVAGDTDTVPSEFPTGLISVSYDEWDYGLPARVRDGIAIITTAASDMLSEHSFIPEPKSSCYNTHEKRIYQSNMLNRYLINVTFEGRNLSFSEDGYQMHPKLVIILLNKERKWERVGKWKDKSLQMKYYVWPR
Sequence of NR1-1a/NR2B receptors (Q00960 27-1482, other chains not shown): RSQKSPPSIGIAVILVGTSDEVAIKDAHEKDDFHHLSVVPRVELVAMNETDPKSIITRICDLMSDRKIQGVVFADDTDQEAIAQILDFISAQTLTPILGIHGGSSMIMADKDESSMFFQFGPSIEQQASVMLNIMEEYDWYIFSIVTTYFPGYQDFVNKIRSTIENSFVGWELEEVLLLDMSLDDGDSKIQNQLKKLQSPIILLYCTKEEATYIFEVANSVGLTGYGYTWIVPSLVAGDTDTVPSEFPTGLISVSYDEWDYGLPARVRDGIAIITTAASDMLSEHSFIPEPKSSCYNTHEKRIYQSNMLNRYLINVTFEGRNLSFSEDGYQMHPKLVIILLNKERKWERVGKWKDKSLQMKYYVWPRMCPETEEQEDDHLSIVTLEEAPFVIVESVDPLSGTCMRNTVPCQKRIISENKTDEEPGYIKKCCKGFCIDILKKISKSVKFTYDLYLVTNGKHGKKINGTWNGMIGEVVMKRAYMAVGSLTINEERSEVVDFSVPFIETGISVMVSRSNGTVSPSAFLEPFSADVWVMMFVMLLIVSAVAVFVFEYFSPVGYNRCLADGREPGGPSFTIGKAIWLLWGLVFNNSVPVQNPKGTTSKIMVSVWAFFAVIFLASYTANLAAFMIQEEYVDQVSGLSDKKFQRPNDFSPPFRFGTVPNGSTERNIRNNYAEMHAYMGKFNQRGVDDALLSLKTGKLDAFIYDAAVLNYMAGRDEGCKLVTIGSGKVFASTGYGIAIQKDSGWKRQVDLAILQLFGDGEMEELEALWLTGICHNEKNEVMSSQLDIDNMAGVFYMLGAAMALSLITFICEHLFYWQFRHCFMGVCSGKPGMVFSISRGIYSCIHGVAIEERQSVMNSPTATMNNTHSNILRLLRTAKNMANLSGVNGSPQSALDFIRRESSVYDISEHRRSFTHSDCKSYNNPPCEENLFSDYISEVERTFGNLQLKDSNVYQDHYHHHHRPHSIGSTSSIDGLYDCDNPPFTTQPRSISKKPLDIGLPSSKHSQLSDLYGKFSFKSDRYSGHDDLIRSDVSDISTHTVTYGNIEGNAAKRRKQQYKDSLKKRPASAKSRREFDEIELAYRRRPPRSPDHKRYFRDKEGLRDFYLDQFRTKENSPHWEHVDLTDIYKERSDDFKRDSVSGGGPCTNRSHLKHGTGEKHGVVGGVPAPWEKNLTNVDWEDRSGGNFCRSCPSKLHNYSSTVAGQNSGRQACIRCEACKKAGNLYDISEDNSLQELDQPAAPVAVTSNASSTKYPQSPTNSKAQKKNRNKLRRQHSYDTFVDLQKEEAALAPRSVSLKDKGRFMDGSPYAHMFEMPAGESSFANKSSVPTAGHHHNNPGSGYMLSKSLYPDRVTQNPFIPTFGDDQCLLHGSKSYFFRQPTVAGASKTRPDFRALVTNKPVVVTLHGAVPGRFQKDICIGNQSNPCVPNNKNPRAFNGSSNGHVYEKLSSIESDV

Q: With `C[C@@H](CN1CCC(Cc2ccccc2)CC1)[C@@H](O)c1ccc(O)cc1` [RO25,6981] as the compound, how does the Ki ([1]; Affinity (Ki) on displacing ifenprodil) read?
A: Its Ki is 4 ± 1 nM.

Q: What about the Ki ([1]; Affinity (Ki) on displacing ifenprodil, Buffer-12 refolded protein, in presence of saturating 5 μM ifenprodil) of the same compound?
A: The Ki was 2 ± 1 nM.

Q: What about the Ki ([1]; Affinity (Ki) on displacing ifenprodil, Buffer-13 refolded protein, in presence of saturating 5 μM ifenprodil) of the same compound?
A: The Ki was 3 ± 1 nM.

Q: And the Ki ([1]; range over Buffers -9, -12 and -13, n = 5 per buffer, read-out: Ki values)?
A: Its Ki is 2 to 4 nM.

Q: What about the IC50 (NR1-1a/NR2B receptors) of the same compound?
A: The IC50 was 59 ± 1 nM.

Q: And the Kd ([2]; Buffer-9 refolded protein, CD at 25°C, mean ± S.E., n = 5)?
A: The Kd was 7 ± 3 nM.

Q: What about the Kd ([2]; Buffer-12 refolded protein, CD at 25°C, n = 5) of the same compound?
A: The Kd was 4 ± 1 nM.

Q: What about the Kd ([2]; Buffer-13 refolded protein, CD) of the same compound?
A: Its Kd is 4 ± 2 nM.

Q: Which Kd (NR1/NR2B) does the source give for `CC(C(O)c1ccc(O)cc1)N1CCC(Cc2ccccc2)CC1` (stereo not drawn) [[^3H]ifenprodil] here?
A: The Kd was 34 to 79 nM.

Q: And the Kd (rat brain cortex)?
A: Its Kd is 36 nM.

Q: What does the source list for [^3H]RO25,6981?
A: [3H]RO25,6981 binding to membranes (NR1/NR2B(D101A)): complete loss; [3H]RO25,6981 binding to membranes (NR1/NR2B(F176A)): complete loss
